# Source: US20230293407A1, “Compositions Comprising (Bio)-Alkanediols with Antimicrobials for Product Protection” (Symrise AG, priority 2020, published 2023)
# Assays:
# Pseudomonas aeruginosa = test: preservation efficacy test (PET), European Pharmacopoeia 5.1.3; type: cell-based
# Staphylococcus aureus = test: as above; type: cell-based
# Aspergillus brasiliensis = test: as above; type: cell-based; conditions: for count at 2 days / count at 7 days / count at 14 days / count at 28 days: AB, use concentration in label
# [1] = maximum water solubility of alkanediols, visual observation; type: physicochemical; conditions: ambient temperature after 24 h storage at 5° C.
# From the text: The water solubility of a substance is the saturation mass concentration of the substance in water at a given temperature. The determination of the solubility in water relates to essentially pure substances which are stable in water and not volatile. The determination of the water solubility of the alkanediols is further described in the following Example 2.
# For the determination of the maximum water solubility of an alkanediol, water and different concentrations of the respective alkanediol were blended by stirring. […] The determination of whether the alkanediol has dissolved in water is based entirely on visual observation.
# fungi/mould = test: preservation efficacy test (PET), overview of the effect against fungi/mould; type: cell-based, Aspergillus brasiliensis; conditions: PET in formulation, result in words on Table 7
# Escherichia coli = test: preservation efficacy test (PET), European Pharmacopoeia 5.1.3; type: cell-based; conditions: for number of microorganisms, 14 days / number of microorganisms, 28 days: Escherichia coli (EC)
# bacteria = test: preservation efficacy test (PET), overview of the effect against bacteria; type: cell-based; conditions: PET in formulation, result in words on Table 7
# Candida albicans = test: preservation efficacy test (PET), European Pharmacopoeia 5.1.3; type: cell-based; conditions: for count at 2 days / count at 7 days / count at 14 days / count at 28 days: CA, use concentration in label
# yeast = test: preservation efficacy test (PET), overview of the effect against yeast; type: cell-based, Candida albicans; conditions: PET in formulation, result in words on Table 7
# [2] = 14 days after inoculation, substance at given % in test formulation
# [3] = 28 days after inoculation, substance at given % in test formulation
# [4] = 2 days after inoculation, substance at given % in test formulation, listed as 0.2% 1,2-heptanediol
# [5] = 7 days after inoculation, substance at given % in test formulation, listed as 0.2% 1,2-heptanediol
# [6] = 28 days after inoculation, substance at given % in test formulation, listed as 0.4% 1,2-heptanediol
# [7] = 2 days after inoculation, listed as 0.6% 1,2-heptanediol
# [8] = 2 days after inoculation, listed as 0.8% 1,2-heptanediol
# [9] = 7 days after inoculation, listed as 0.6% 1,2-heptanediol
# [10] = 7 days after inoculation, listed as 0.8% 1,2-heptanediol
# [11] = 14 days after inoculation, listed as 0.6% 1,2-heptanediol
# [12] = 14 days after inoculation, listed as 0.8% 1,2-heptanediol
# [13] = 28 days after inoculation, listed as 0.6% 1,2-heptanediol
# [14] = 28 days after inoculation, listed as 0.8% 1,2-heptanediol
# [15] = 28 days after inoculation, substance at given % in test formulation, listed as 0.2% 1,2-heptanediol
structure (smiles),measurement,setting,value
"CCCCCC(O)CO (stereo not drawn) [1,2-heptanediol]","PA germ count, 2 days","Pseudomonas aeruginosa; 2 days after inoculation, substance at given % in test formulation",1
same,"PA germ count, 7 days","Pseudomonas aeruginosa; 7 days after inoculation, substance at given % in test formulation",1
same,"PA germ count, 14 days",Pseudomonas aeruginosa; [2],1
same,"PA germ count, 28 days",Pseudomonas aeruginosa; [3],1
same,count at 2 days,"Pseudomonas aeruginosa; PA, 2 days after inoculation, use concentration in label",1
same,count at 7 days,"Pseudomonas aeruginosa; PA, 7 days after inoculation, use concentration in label",1
same,count at 14 days,"Pseudomonas aeruginosa; PA, 14 days after inoculation, use concentration in label",1
same,count at 28 days,"Pseudomonas aeruginosa; PA, 28 days after inoculation, use concentration in label",1
same,"SA germ count, 2 days",Staphylococcus aureus; [4],95.000
same,"SA germ count, 7 days",Staphylococcus aureus; [5],1
same,"SA germ count, 14 days",Staphylococcus aureus; [2],1
same,"SA germ count, 28 days",Staphylococcus aureus; [3],1
same,"number of microorganisms, 2 days","Staphylococcus aureus; PET in shampoo, Staphylococcus aureus (SA), 2 days after inoculation",10
same,"number of microorganisms, 7 days","Staphylococcus aureus; PET in shampoo, Staphylococcus aureus (SA), 7 days after inoculation",10
same,"number of microorganisms, 14 days","Staphylococcus aureus; PET in shampoo, Staphylococcus aureus (SA), 14 days after inoculation",1
same,"number of microorganisms, 28 days","Staphylococcus aureus; PET in shampoo, Staphylococcus aureus (SA), 28 days after inoculation",1
same,"number of microorganisms, 14 days","Staphylococcus aureus; PET, Staphylococcus aureus (SA), 14 days after inoculation",1
same,"number of microorganisms, 28 days","Staphylococcus aureus; PET, Staphylococcus aureus (SA), 28 days after inoculation",1
same,count at 2 days,"Staphylococcus aureus; SA, 2 days after inoculation, use concentration in label, listed as 0.6% 1,2-heptanediol",1
same,count at 2 days,"Staphylococcus aureus; SA, 2 days after inoculation, use concentration in label, listed as 0.8% 1,2-heptanediol",1
same,count at 7 days,"Staphylococcus aureus; SA, 7 days after inoculation, use concentration in label, listed as 0.6% 1,2-heptanediol",1
same,count at 7 days,"Staphylococcus aureus; SA, 7 days after inoculation, use concentration in label, listed as 0.8% 1,2-heptanediol",1
same,count at 14 days,"Staphylococcus aureus; SA, 14 days after inoculation, use concentration in label",1
same,count at 28 days,"Staphylococcus aureus; SA, 28 days after inoculation, use concentration in label",1
same,"AB germ count, 28 days",Aspergillus brasiliensis; [6],1
same,count at 2 days,Aspergillus brasiliensis; [7],510.000
same,count at 2 days,Aspergillus brasiliensis; [8],670.000
same,count at 7 days,Aspergillus brasiliensis; [9],16.000
same,count at 7 days,Aspergillus brasiliensis; [10],410.000
same,count at 14 days,Aspergillus brasiliensis; [11],51.000
same,count at 14 days,Aspergillus brasiliensis; [12],63.000
same,count at 28 days,"Aspergillus brasiliensis; 28 days after inoculation, listed as 0.4% 1,2-heptanediol",1
same,count at 28 days,Aspergillus brasiliensis; [13],1
same,count at 28 days,Aspergillus brasiliensis; [14],1.100
same,efficacy against Aspergillus brasiliensis,"Aspergillus brasiliensis; PET in formulation, result in words on Table 7",significantly efficacy
same,"number of microorganisms, 2 days","Aspergillus brasiliensis; PET in shampoo, Aspergillus brasiliensis (AB), 2 days after inoculation",240.000
same,"number of microorganisms, 7 days","Aspergillus brasiliensis; PET in shampoo, Aspergillus brasiliensis (AB), 7 days after inoculation",220.000
same,"number of microorganisms, 14 days","Aspergillus brasiliensis; PET in shampoo, Aspergillus brasiliensis (AB), 14 days after inoculation",150.000
same,"number of microorganisms, 28 days","Aspergillus brasiliensis; PET in shampoo, Aspergillus brasiliensis (AB), 28 days after inoculation",19.000
same,Maximum solubility in water,[1],2.5 % by weight
same,antimicrobial efficacy against fungi,fungi/mould,concentration dependent antimicrobial efficacy
same,"EC germ count, 2 days",Escherichia coli; [4],38.000
same,"EC germ count, 7 days",Escherichia coli; [5],73
same,"EC germ count, 14 days","Escherichia coli; 14 days after inoculation, substance at given % in test formulation, listed as 0.2% 1,2-heptanediol",1
same,"EC germ count, 14 days","Escherichia coli; 14 days after inoculation, substance at given % in test formulation, listed as 0.4% 1,2-heptanediol",1
same,"EC germ count, 28 days",Escherichia coli; [15],1
same,"EC germ count, 28 days",Escherichia coli; [6],1
same,count at 2 days,"Escherichia coli; EC, 2 days after inoculation, use concentration in label, listed as 0.6% 1,2-heptanediol",1
same,count at 2 days,"Escherichia coli; EC, 2 days after inoculation, use concentration in label, listed as 0.8% 1,2-heptanediol",1
same,count at 7 days,"Escherichia coli; EC, 7 days after inoculation, use concentration in label, listed as 0.6% 1,2-heptanediol",1
same,count at 7 days,"Escherichia coli; EC, 7 days after inoculation, use concentration in label, listed as 0.8% 1,2-heptanediol",1
same,count at 14 days,"Escherichia coli; EC, 14 days after inoculation, use concentration in label",1
same,count at 28 days,"Escherichia coli; EC, 28 days after inoculation, use concentration in label",1
same,"number of microorganisms, 14 days","Escherichia coli; PET in shampoo, 14 days after inoculation",200.000
same,"number of microorganisms, 28 days","Escherichia coli; PET in shampoo, 28 days after inoculation",1
same,"number of microorganisms, 14 days","Escherichia coli; PET, 14 days after inoculation",1
same,"number of microorganisms, 28 days","Escherichia coli; PET, 28 days after inoculation",1
same,antimicrobial efficacy against bacteria,bacteria,concentration dependent antimicrobial efficacy
same,"CA germ count, 28 days",Candida albicans; [15],620.000
same,count at 2 days,Candida albicans; [7],69.000
same,count at 2 days,Candida albicans; [8],68.000
same,count at 7 days,Candida albicans; [9],2.800
same,count at 7 days,Candida albicans; [10],1
same,count at 14 days,Candida albicans; [11],1
same,count at 14 days,Candida albicans; [12],1
same,count at 28 days,Candida albicans; [13],1
same,count at 28 days,Candida albicans; [14],1
same,"number of microorganisms, 2 days","Candida albicans; PET in shampoo, Candida albicans (CA), 2 days after inoculation",220.000
same,"number of microorganisms, 7 days","Candida albicans; PET in shampoo, Candida albicans (CA), 7 days after inoculation",62.000
same,"number of microorganisms, 14 days","Candida albicans; PET in shampoo, Candida albicans (CA), 14 days after inoculation",8.100
same,"number of microorganisms, 28 days","Candida albicans; PET in shampoo, Candida albicans (CA), 28 days after inoculation",1
same,antimicrobial efficacy against yeast,yeast,concentration dependent antimicrobial efficacy
